Experimental data taken from patent publication US20180370927A1, “MICROBIOCIDAL OXADIAZOLE DERIVATIVES” (SYNGENTA PARTICIPATIONS AG, priority 2015, published 2018).

Key:
[1] = tested on: Puccinia recondita f. Sp. Tritici; assay: Puccinia recondita f. sp. tritici / wheat / leaf disc preventative (brown rust); assay type: in vivo; details: foliar, 200 ppm in the applied formulation, wheat leaf segments, preventative, assessed 7 to 9 days after application, read-out: disease control compared to untreated control leaf disks
Method: (§1) Leaf disks or leaf segments of various plant species are cut from plants grown in a greenhouse. The cut leaf disks or segments are placed in multiwell plates (24-well format) onto water agar. The leaf disks are sprayed with a test solution before (preventative) or after (curative) inoculation. Compounds to be tested are prepared as DMSO solutions (max. 10 mg/mL) which are diluted to the appropriate concentration with 0.025% Tween20 just before spraying. The inoculated leaf disks or segments are incubated under defined conditions (temperature, relative humidity, light, etc.) according to the respective test system. A single evaluation of disease level is carried out 3 to 14 days after inoculation, depending on the pathosystem. Percent disease control relative to the untreated check leaf disks or segments is then calculated.
Example 1: Fungicidal Activity Against Puccinia recondita f. Sp. Tritici/Wheat/Leaf Disc Preventative (Brown Rust)
Wheat leaf segments cv. Kanzler were placed on agar in multiwell plates (24-well format) and sprayed with the formulated test compound diluted in water. The leaf disks were inoculated with a spore suspension of the fungus 1 day after application. The inoculated leaf segments were incubated at 19° C. and 75% relative humidity (rh) under a light regime of 12 hours light/12 hours darkness in a climate cabinet and the activity of a compound was assessed as percent disease control compared to untreated when an appropriate level of disease damage appears in untreated check leaf segments (7 to 9 days after application).
(§2) The following compounds at 200 ppm in the applied formulation give at least 80% disease control in this test when compared to untreated control leaf disks under the same conditions, which show extensive disease development.

[2] = tested on: Puccinia recondita f. Sp. Tritici; assay: Puccinia recondita f. sp. tritici / wheat / leaf disc curative (brown rust); assay type: in vivo; details: foliar, 200 ppm in the applied formulation, wheat leaf segments, curative (applied 1 day after inoculation), assessed 6 to 8 days after application, read-out: disease control compared to untreated control leaf disks
Method: as §1
Example 2: Fungicidal Activity Against Puccinia recondita f. Sp. Tritici/Wheat/Leaf Disc Curative (Brown Rust)
Wheat leaf segments cv. Kanzler are placed on agar in multiwell plates (24-well format). The leaf segments are then inoculated with a spore suspension of the fungus. Plates were stored in darkness at 19° C. and 75% relative humidity. The formulated test compound diluted in water was applied 1 day after inoculation. The leaf segments were incubated at 19° C. and 75% relative humidity under a light regime of 12 hours light/12 hours darkness in a climate cabinet and the activity of a compound was assessed as percent disease control compared to untreated when an appropriate level of disease damage appears in untreated check leaf segments (6 to 8 days after application).
as §2

[3] = tested on: Glomerella lacenarium (Colletotrichum lacenarium); assay: Glomerella lacenarium (Colletotrichum lacenarium) liquid culture / cucumber / preventative (anthracnose); assay type: cell-based; details: 20 ppm in the applied formulation, liquid culture in PDB, 24° C., 3 to 4 days after application, read-out: disease control (inhibition of growth, photometric) compared to untreated control
Method: Mycelia fragments or conidia suspensions of a fungus prepared either freshly from liquid cultures of the fungus or from cryogenic storage, are directly mixed into nutrient broth. DMSO solutions of the test compound (max. 10 mg/ml) are diluted with 0.025% Tween20 by a factor of 50 and 10 μL of this solution is pipetted into a microtiter plate (96-well format). The nutrient broth containing the fungal spores/mycelia fragments is then added to give an end concentration of the tested compound. The test plates are incubated in the dark at 24° C. and 96% relative humidity. The inhibition of fungal growth is determined photometrically after 2 to 7 days, depending on the pathosystem, and percent antifungal activity relative to the untreated check is calculated.
Example 4: Fungicidal Activity Against Glomerella lacenarium (Colletotrichum lacenarium) Liquid Culture/Cucumber/Preventative (Anthracnose)
Conidia of the fungus from cryogenic storage are directly mixed into nutrient broth (PDB—potato dextrose broth). After placing a (DMSO) solution of test compound into a microtiter plate (96-well format), the nutrient broth containing the fungal spores is added. The test plates are incubated at 24° C. and the inhibition of growth is measured photometrically 3 to 4 days after application.
The following compounds at 20 ppm in the applied formulation give at least 80% disease control in this test when compared to untreated control under the same conditions, which show extensive disease development.

COCCN(Cc1ccc(-c2noc(C(F)(F)F)n2)cc1)C(=O)C(N)=O [Compound 4.12, N′-(2-methoxyethyl)-N′-[[4-[5-(trifluoromethyl)-1,2,4-oxadiazol-3-yl]phenyl]methyl] oxamide]
≥ 80%: pest or weed control at 200 ppm [1] | pest or weed control at 200 ppm [2] | inhibition at 20 ppm [3]

CCC(C)N(Cc1ccc(-c2noc(C(F)(F)F)n2)cc1)C(=O)C(N)=O (stereo not drawn) [Compound 4.13, N′-sec-butyl-N′-[[4-[5-(trifluoromethyl)-1,2,4-oxadiazol-3-yl]phenyl]methyl] oxamide]
≥ 80%: pest or weed control at 200 ppm [1] | pest or weed control at 200 ppm [2] | inhibition at 20 ppm [3]

NC(=O)C(=O)N(Cc1ccc(-c2noc(C(F)(F)F)n2)cc1)CC1CCCO1 (stereo not drawn) [Compound 4.14, N′-(tetrahydrofuran-2-ylmethyl)-N′-[[4-[5-(trifluoromethyl)-1,2,4-oxadiazol-3-yl]phenyl]methyl] oxamide]
≥ 80%: pest or weed control at 200 ppm [1] | pest or weed control at 200 ppm [2] | inhibition at 20 ppm [3]

COC(CN(C)C(=O)C(=O)Nc1ccc(-c2noc(C(F)(F)F)n2)cc1)OC [Compound 4.21, N′-(2,2-dimethoxyethyl)-N'-methyl-N-[4-[5-(trifluoromethyl)-1,2,4-oxadiazol-3-yl]phenyl] oxamide]
≥ 80%: pest or weed control at 200 ppm [1] | pest or weed control at 200 ppm [2] | inhibition at 20 ppm [3]

CN(C)C(=O)C(=O)N(Cc1ccc(-c2noc(C(F)(F)F)n2)cc1)Cc1ccco1 [Compound 4.23, N′-(2-furylmethyl)-N,N-dimethyl-N′-[[4-[5-(trifluoromethyl)-1,2,4-oxadiazol-3-yl]phenyl]methyl] oxamide]
≥ 80%: pest or weed control at 200 ppm [1] | pest or weed control at 200 ppm [2] | inhibition at 20 ppm [3]

CCCONC(=O)C(=O)NCc1ccc(-c2noc(C(F)(F)F)n2)cc1 [Compound 4.42, N′-propoxy-N-[[4-[5-(trifluoromethyl)-1,2,4-oxadiazol-3-yl]phenyl]methyl] oxamide]
≥ 80%: pest or weed control at 200 ppm [1] | pest or weed control at 200 ppm [2] | inhibition at 20 ppm [3]

CC(C)NC(=O)C(=O)NCc1ccc(-c2noc(C(F)(F)F)n2)cc1 [Compound 4.46, N′-isopropyl-N-[[4-[5-(trifluoromethyl)-1,2,4-oxadiazol-3-yl]phenyl]methyl] oxamide]
≥ 80%: pest or weed control at 200 ppm [1] | pest or weed control at 200 ppm [2] | inhibition at 20 ppm [3]

CON(C)C(=O)C(=O)NCc1ccc(-c2noc(C(F)(F)F)n2)cc1 [Compound 4.48, N′-methoxy-N′-methyl-N-[[4-[5-(trifluoromethyl)-1,2,4-oxadiazol-3-yl]phenyl]methyl] oxamide]
≥ 80%: pest or weed control at 200 ppm [1] | pest or weed control at 200 ppm [2] | inhibition at 20 ppm [3]

CCC(C)NC(=O)C(=O)N(Cc1ccc(-c2noc(C(F)(F)F)n2)cc1)OC (stereo not drawn) [Compound 4.61, N′-methoxy-N-sec-butyl-N′-[[4-[5-(trifluoromethyl)-1,2,4-oxadiazol-3-yl]phenyl]methyl] oxamide]
≥ 80%: pest or weed control at 200 ppm [1] | pest or weed control at 200 ppm [2] | inhibition at 20 ppm [3]

CON(Cc1ccc(-c2noc(C(F)(F)F)n2)cc1)C(=O)C(=O)NCC(C)(C)C [Compound 4.62, N-(2,2-dimethylpropyl)-N′-methoxy-N′-[[4-[5-(trifluoromethyl)-1,2,4-oxadiazol-3-yl]phenyl]methyl] oxamide]
≥ 80%: pest or weed control at 200 ppm [1] | pest or weed control at 200 ppm [2] | inhibition at 20 ppm [3]

CON(Cc1ccc(-c2noc(C(F)(F)F)n2)cc1)C(=O)C(=O)NC(C)C [Compound 4.64, N-isopropyl-N′-methoxy-N′-[[4-[5-(trifluoromethyl)-1,2,4-oxadiazol-3-yl]phenyl]methyl] oxamide]
≥ 80%: pest or weed control at 200 ppm [1] | pest or weed control at 200 ppm [2] | inhibition at 20 ppm [3]

CCNC(=O)C(=O)N(Cc1ccc(-c2noc(C(F)(F)F)n2)cc1)OC [Compound 4.66, N-ethyl-N′-methoxy-N′-[[4-[5-(trifluoromethyl)-1,2,4-oxadiazol-3-yl]phenyl]methyl] oxamide]
≥ 80%: pest or weed control at 200 ppm [1] | pest or weed control at 200 ppm [2] | inhibition at 20 ppm [3]

CON(Cc1ccc(-c2noc(C(F)(F)F)n2)cc1)C(=O)C(=O)NCC(C)C [Compound 4.67, N-isobutyl-N′-methoxy-N′-[[4-[5-(trifluoromethyl)-1,2,4-oxadiazol-3-yl]phenyl]methyl] oxamide]
≥ 80%: pest or weed control at 200 ppm [1] | pest or weed control at 200 ppm [2] | inhibition at 20 ppm [3]

CON(Cc1ccc(-c2noc(C(F)(F)F)n2)cc1)C(=O)C(=O)NC1CC1 [Compound 4.68, N-cyclopropyl-N′-methoxy-N′-[[4-[5-(trifluoromethyl)-1,2,4-oxadiazol-3-yl]phenyl]methyl] oxamide]
≥ 80%: pest or weed control at 200 ppm [1] | pest or weed control at 200 ppm [2] | inhibition at 20 ppm [3]

CON(Cc1ccc(-c2noc(C(F)(F)F)n2)cc1)C(=O)C(=O)NC1CCC1 [Compound 4.72, N-cyclobutyl-N′-methoxy-N′-[[4-[5-(trifluoromethyl)-1,2,4-oxadiazol-3-yl]phenyl]methyl] oxamide]
≥ 80%: pest or weed control at 200 ppm [1] | pest or weed control at 200 ppm [2] | inhibition at 20 ppm [3]

CCONC(=O)C(=O)N(Cc1ccc(-c2noc(C(F)(F)F)n2)cc1)OC [Compound 4.74, N-ethoxy-N′-methoxy-N′-[[4-[5-(trifluoromethyl)-1,2,4-oxadiazol-3-yl]phenyl]methyl] oxamide]
≥ 80%: pest or weed control at 200 ppm [1] | pest or weed control at 200 ppm [2] | inhibition at 20 ppm [3]

CON(Cc1ccc(-c2noc(C(F)(F)F)n2)cc1)C(=O)C(=O)NC(C)(C)C [Compound 4.75, N-tert-butyl-N′-methoxy-N′-[[4-[5-(trifluoromethyl)-1,2,4-oxadiazol-3-yl]phenyl]methyl] oxamide]
≥ 80%: pest or weed control at 200 ppm [1] | pest or weed control at 200 ppm [2] | inhibition at 20 ppm [3]

CCCNC(=O)C(=O)N(Cc1ccc(-c2noc(C(F)(F)F)n2)cc1)OC [Compound 4.77, N′-methoxy-N-propyl-N′-[[4-[5-(trifluoromethyl)-1,2,4-oxadiazol-3-yl]phenyl]methyl] oxamide]
≥ 80%: pest or weed control at 200 ppm [1] | pest or weed control at 200 ppm [2] | inhibition at 20 ppm [3]

CONC(=O)C(=O)N(Cc1ccc(-c2noc(C(F)(F)F)n2)cc1)OC [Compound 4.78, N,N′-dimethoxy-N′-[[4-[5-(trifluoromethyl)-1,2,4-oxadiazol-3-yl]phenyl]methyl] oxamide]
≥ 80%: pest or weed control at 200 ppm [1] | pest or weed control at 200 ppm [2] | inhibition at 20 ppm [3]

CON(Cc1ccc(-c2noc(C(F)(F)F)n2)cc1)C(=O)C(=O)N1CCOCC1 [Compound 4.80, N-methoxy-2-morpholino-2-oxo-N-[[4-[5-(trifluoromethyl)-1,2,4-oxadiazol-3-yl]phenyl]methyl] acetamide]
≥ 80%: pest or weed control at 200 ppm [1] | pest or weed control at 200 ppm [2] | inhibition at 20 ppm [3]

CNC(=O)C(=O)N(C)Cc1ccc(-c2noc(C(F)(F)F)n2)cc1 [Compound 4.99, N,N′-dimethyl-N′-[[4-[5-(trifluoromethyl)-1,2,4-oxadiazol-3-yl]phenyl]methyl] oxamide]
≥ 80%: pest or weed control at 200 ppm [1] | pest or weed control at 200 ppm [2] | inhibition at 20 ppm [3]
